Active and inactive are the calls of the source.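 How the source made its calls: active means CXCR6 IC50 under 10 µM and IC50 at the unrelated APJ receptor at least five times higher; inactive means the rest.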

This is an account of results in PubChem BioAssay AID651598 (Sanford-Burnham Center for Chemical Genomics, 2012).

Test [1] deals with Apelin receptor (Homo sapiens) (UniProt P35414). The test is described as follows: apelin receptor (APJ) antagonists, SAR follow-up, counter-screen for CXCR6 antagonist project, cell-based, beta-arrestin, DiscoveRx, panel, CHO-K1 (AID 651598). As to conditions: CHO-K1 PathHunter beta-arrestin luminescence, antagonist mode; APJ; mean of runs.
Chain of Apelin receptor (Homo sapiens) (P35414 whole entry, looked up): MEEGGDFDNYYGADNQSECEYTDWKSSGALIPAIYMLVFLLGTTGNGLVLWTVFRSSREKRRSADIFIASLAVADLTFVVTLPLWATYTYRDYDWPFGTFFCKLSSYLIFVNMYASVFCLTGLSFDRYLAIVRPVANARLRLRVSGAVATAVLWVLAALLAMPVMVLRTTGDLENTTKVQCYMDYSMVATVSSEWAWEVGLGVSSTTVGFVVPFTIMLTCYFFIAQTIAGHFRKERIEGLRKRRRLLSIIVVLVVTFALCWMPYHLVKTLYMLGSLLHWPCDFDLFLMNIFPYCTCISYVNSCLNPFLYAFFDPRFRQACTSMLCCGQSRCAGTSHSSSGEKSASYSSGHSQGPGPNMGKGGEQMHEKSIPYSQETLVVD
The target of test [2] is C-X-C chemokine receptor type 6 (Homo sapiens) (UniProt O00574). The test is described as above. As to conditions: CHO-K1 PathHunter beta-arrestin luminescence, antagonist mode; CXCR6; mean of runs.
Chain of C-X-C chemokine receptor type 6 (Homo sapiens) (O00574 whole entry, looked up): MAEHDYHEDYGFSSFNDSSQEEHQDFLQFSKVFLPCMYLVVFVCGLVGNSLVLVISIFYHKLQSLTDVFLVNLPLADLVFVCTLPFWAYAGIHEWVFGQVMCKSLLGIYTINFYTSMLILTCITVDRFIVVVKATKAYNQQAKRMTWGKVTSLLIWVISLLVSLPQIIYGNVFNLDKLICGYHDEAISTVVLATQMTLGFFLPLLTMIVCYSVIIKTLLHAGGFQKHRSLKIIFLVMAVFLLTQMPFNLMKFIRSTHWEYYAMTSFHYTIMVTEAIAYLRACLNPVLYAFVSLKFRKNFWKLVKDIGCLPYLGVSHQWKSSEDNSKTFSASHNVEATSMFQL

With `COc1cc(C(=O)NC2CC3CCCC(C2)N3CC(=O)Nc2ccccc2)cc(OC)c1OC` (centres undefined), in test [1], the IC50 was > 80 µM (inactive).
For `COc1cc(C(=O)NC2CC3CCC(C2)N3CC(=O)Nc2ccccc2)cc(OC)c1OC` (centres undefined), in test [1], the IC50 was > 80 µM (inactive).
In the case of `COc1cc(C(=O)NC2CCN(CC(=O)Nc3ccccc3)CC2)cc(OC)c1OC`, the IC50 in test [1] and in test [2] was > 80 µM (inactive) throughout.
